The record followed here is publication PMC2691177 (Biochemical Journal, 2009).

This test concerns the target human lysosomal HexA/HexB. It counts as biochemical. To be noted: read-out: Hex A/B, Ki.

On to `CC(=O)N[C@H]1/C(=N/OC(=O)Nc2ccccc2)O[C@H](CO)[C@@H](O)[C@@H]1O` [PUGNAc, O-(2-acetamido-2-deoxy-D-glucopyranosylidene)amino N-phenylcarbamate], for which the Ki was 0.025 ± 0.0025 µM.
